The source of these data is patent US8461378B2, “Purification of fluoroalkanesulfonate salts” (E.I. du Pont de Nemours and Company, priority 2010, dated 2013).

This data set can be described thus: Solubility of TFESK in water and in aqueous K2SO3 solution. It counts as physicochemical. An excerpt:
Therefore, TFESK was selectively crystallized from sulfite solutions.

Consider `O=S(=O)([O-])C(F)(F)C(F)F.[K+]` [TFESK, Potassium 1,1,2,2-tetrafluoroethanesulfonate], for which the “solubility in 2M K2SO3 solution” value (2M K2SO3 solution) is 1-2 % by weight. Moreover, the solubility in water (water at 0° C.) came to 25 % by weight.
